Data reported in patent publication US12435061B2 (priority 2020, dated 2025).
In brackets after ≈: the same amount, converted by molar mass. Like-named read-outs stand apart in the source and are kept apart here.

Columns and labels:
hTRPV3 [1] = target: T1, hTRPV3 (Homo sapiens (Human), UniProt Q8NET8); assay: Whole-cell patch clamp, hTRPV3 Phase 1 / Phase 2 currents; type: cell-based
How it was run: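 Whole-cell recordings on induced TRPV3 cells replated on coverslips, held at −40 mV with 400 ms ramps from −120 to +100 mV every 5 s; currents read at −80 and +80 mV. Ringer's external solution; current activated by heating to ≥28 °C or 20 μM 2-APB.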

hTRPV3 [2] = target: T1, hTRPV3; assay: hTRPV3 HAMA IC50 assay (Hamamatsu FDSS6000 calcium flux, TRex-293 cells)
Experimental: IC50s were calculated using CBIS from ChemInnovation (San Diego).

[3] = Aqueous solubility assay in Normal Ringer Solution; conditions: Normal Ringer Solution, saline or isotonic, kinetic from dmso stock
Experimental: Following vortex and incubation for a sufficient time (e.g. 40 minutes at room temperature), solutions were filtered, quenched with acetonitrile, and analyzed by Liquid Chromotography. Solubility Limits were determined by comparison to a standard curve.

[4] = Metabolic Stability assay, rat liver microsomes; type: in vitro ADME; conditions: read-out: LM T1/2 (min) rat
How it was run: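 Test article at 1 μM starting concentration incubated with human or rat liver microsomes at 37 °C, with the reaction started by NADPH regeneration components. Aliquots were quenched in cold acetonitrile/MeOH/H2O at 0, 7, 15, 30 and 60 min and analysed by HPLC/MS/MS.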

[5] = Phase 1 current, inward, whole-cell patch clamp, read-out: hTRPV3 Patch P1 Inwd
[6] = Phase 1 current, read-out: hTRPV3 (nM) (Phase 1)
[7] = Phase 2 current, inward, whole-cell patch clamp, read-out: hTRPV3 Patch P2 Inwd
[8] = Phase 2 current, read-out: hTRPV3 (nM) (Phase 2)
[9] = Phase 1 current, human TRPV3, read-out: hTRPV3 (nM) Phase 1

T1 sequence (Q8NET8 whole entry): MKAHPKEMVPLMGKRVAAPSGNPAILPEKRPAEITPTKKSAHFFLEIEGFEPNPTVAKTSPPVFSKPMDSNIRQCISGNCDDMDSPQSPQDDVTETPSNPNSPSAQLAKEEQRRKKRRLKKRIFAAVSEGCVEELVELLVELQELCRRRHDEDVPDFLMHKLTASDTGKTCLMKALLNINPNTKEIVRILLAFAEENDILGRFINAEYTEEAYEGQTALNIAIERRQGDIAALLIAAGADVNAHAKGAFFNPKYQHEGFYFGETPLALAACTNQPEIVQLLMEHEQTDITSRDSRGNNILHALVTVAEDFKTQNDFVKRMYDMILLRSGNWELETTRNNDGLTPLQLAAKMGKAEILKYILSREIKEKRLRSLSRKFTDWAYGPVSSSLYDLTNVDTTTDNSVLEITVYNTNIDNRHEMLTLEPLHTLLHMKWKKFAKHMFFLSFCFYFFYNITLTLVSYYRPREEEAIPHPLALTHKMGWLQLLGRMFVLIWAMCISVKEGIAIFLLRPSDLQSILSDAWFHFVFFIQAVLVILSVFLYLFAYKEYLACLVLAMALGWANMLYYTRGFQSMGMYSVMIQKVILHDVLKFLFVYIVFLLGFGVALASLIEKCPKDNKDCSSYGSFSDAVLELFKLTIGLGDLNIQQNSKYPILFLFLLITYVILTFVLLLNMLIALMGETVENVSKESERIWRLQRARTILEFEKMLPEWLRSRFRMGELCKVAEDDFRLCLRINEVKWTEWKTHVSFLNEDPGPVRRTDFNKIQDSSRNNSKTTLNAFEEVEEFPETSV

Row | SMILES | IC50 (hTRPV3 [1]; [5]) [nM] | IC50 (hTRPV3 [1]; [6]) [nM] | hTRPV3 HAMA IC50 (nM) (5 min) (hTRPV3 [2]) | IC50 (hTRPV3 [1]; [7]) [nM] | IC50 (hTRPV3 [1]; [8]) [nM] | hTRPV3 HAMA IC50 (nM) (30 min) (hTRPV3 [2]) | also measured
1 | FC(F)(F)c1ccc(O[C@H]2CCN(c3ccccc3-c3ccccc3)C2)nc1 [Compound 1-27, (S)-2-(1-(biphenyl-2-yl)pyrrolidin-3-yloxy)-5-(trifluoromethyl)pyridine] | > 1000 | > 3200 | no fit (5 min) |  |  |  | 
2 | FC(F)(F)c1ccc(O[C@@H]2CCN(c3ccccc3-c3ccccc3)C2)nc1 [Compound 1-28, (R)-2-(1-(biphenyl-2-yl)pyrrolidin-3-yloxy)-5-(trifluoromethyl)pyridine] | > 1000 | > 3200 | no fit (5 min) |  |  |  | 
3 | N#Cc1cc(-c2ccccc2)ccc1N1CC[C@H](Oc2ccc(C(F)(F)F)cn2)C1 [Compound 1-56, (S)-4-(3-(5-(trifluoromethyl)pyridin-2-yloxy)pyrrolidin-1-yl)biphenyl-3-carbonitrile] |  |  | R2 fail (5 min) | 100 to 1000 | ~504 |  | 
4 | O=[N+]([O-])c1ccccc1N1CC[C@H](Oc2ccc3cc(Cl)ccc3n2)C1 [Compound 1-68, (S)-6-chloro-2-(1-(2-nitrophenyl)pyrrolidin-3-yloxy)quinoline] | > 1000 | > 3200 | no fit (5 min) | > 1000 | > 3200 |  | 
5 | Nc1ccccc1N1CC[C@H](Oc2ccc3cc(Cl)ccc3n2)C1 [Compound 1-69, (S)-2-(3-(6-chloroquinolin-2-yloxy)pyrrolidin-1-yl)aniline] |  |  | no fit (5 in) |  |  |  | hTRPV3 (nM) (Phase 2) (hTRPV3 [1]; Phase 2 current): Agonist (Phase 2)
6 | O=[N+]([O-])c1cc(-c2ccccc2)ccc1N1CC[C@H](Oc2ccc3cc(Cl)ccc3n2)C1 [Compound 1-70, (S)-6-chloro-2-(1-(3-nitrobiphenyl-4-yl)pyrrolidin-3-yloxy)quinoline] | > 1000 | > 3200 | no fit (5 min) | > 1000 | > 3200 |  | 
7 | Nc1cc(-c2ccccc2)ccc1N1CC[C@H](Oc2ccc3cc(Cl)ccc3n2)C1 [Compound 1-71, (S)-4-(3-(6-chloroquinolin-2-yloxy)pyrrolidin-1-yl)biphenyl-3-amine] |  | > 3200 | no fit (5 min) |  | > 3200 |  | IC50 (hTRPV3 [1]; hTRPV3 Patch P1 Inwd (nM), Phase 1 current, inward, whole-cell patch clamp): > 1000 nM; IC50 (hTRPV3 [1]; hTRPV3 Patch P2 Inwd (nM), Phase 2 current, inward, whole-cell patch clamp): > 1000 nM
8 | NC(=O)c1c(-c2ccccc2)cccc1N1CC[C@H](Oc2ccc(C(F)(F)F)cn2)C1 [Compound 1-72, (S)-3-(3-(5-(trifluoromethyl)pyridin-2-yloxy)pyrrolidin-1-yl)biphenyl-2-carboxamide] |  |  | no fit (5 min) | > 1000 | > 3200 |  | hTRPV3 (nM) (Phase 1) (hTRPV3 [1]; Phase 1 current): Agonist
9 | CCOC(=O)COc1cc(-c2ccccc2)ccc1N1CC[C@H](Oc2ccc(C(F)(F)F)cn2)C1 [Compound 1-134, (S)-ethyl 2-(4-(3-(5-(trifluoromethyl)pyridin-2-yloxy)pyrrolidin-1-yl)biphenyl-3-yloxy)acetate] | > 1000 | ~4820 | no fit (5 min) | > 1000 | > 3200 |  | 
10 | OCc1cc(-c2ccccc2C(F)(F)F)ccc1N1CC[C@H](Oc2ccc(C(F)(F)F)cn2)C1 [Compound 1-152, (S)-(2′-(trifluoromethyl)-4-(3-(5-(trifluoromethyl)pyridin-2-yloxy)pyrrolidin-1-yl)biphenyl-3-yl)methanol] | 10 to 100 | 20.4 | no fit (5 min) |  |  |  | 
11 | CCc1ccccc1-c1ccc(N2CC[C@H](Oc3ccc(C)cn3)C2)c(CO)n1 [Compound 1-185, (S)-(6-(2-ethylphenyl)-3-(3-(5-methylpyridin-2-yloxy)pyrrolidin-1-yl)pyridin-2-yl)methanol] | > 1000 | > 3200 | no fit (5 min) no fit (30 min) | > 1000 | 2950 | no fit (5 min) no fit (30 min) | 
12 | COc1ccccc1-c1ccc(N2CC[C@H](Oc3ncccc3C)C2)c(CO)n1 [Compound 1-186, (S)-(6-(2-methoxyphenyl)-3-(3-(3-methylpyridin-2-yloxy)pyrrolidin-1-yl)pyridin-2-yl)methanol] | > 1000 | 1010 | no fit (5 min) no fit (30 min) | 100 to 1000 | 980 | no fit (5 min) no fit (30 min) | 
13 | CCc1ccccc1-c1ccc(N2CC[C@H](Oc3ncccc3C)C2)c(CO)n1 [Compound 1-187, (S)-(6-(2-ethylphenyl)-3-(3-(3-methylpyridin-2-yloxy)pyrrolidin-1-yl)pyridin-2-yl)methanol] | 100 to 1000 | 720 | no fit (5 min) no fit (30 min) | > 1000 | ~1000 | no fit (5 min) no fit (30 min) | 
14 | OCc1ncc(-c2ccccc2)cc1N1CC[C@H](Oc2ccc(C(F)(F)F)cn2)C1 [Compound 1-188, (S)-(5-phenyl-3-(3-(5-(trifluoromethyl)pyridin-2-yloxy)pyrrolidin-1-yl)pyridin-2-yl)methanol] | > 1000 | > 3200 | no fit (5 min) no fit (30 min) |  |  | no fit (5 min) no fit (30 min) | 
15 | Cc1cccnc1O[C@H]1CCN(c2ccc(-c3ccccc3Cl)cc2CCO)C1 [Compound 1-194, (S)-2-(2′-chloro-4-(3-(3-methylpyridin-2-yloxy)pyrrolidin-1-yl)biphenyl-3-yl)ethanol] | 100 to 1000 | 327 | no fit (5 min) |  |  |  | 
16 | Cc1ccc(O[C@H]2CCN(c3ccc(-c4ccccn4)cc3CO)C2)nc1 [Compound 1-220, (S)-(2-(3-(5-methylpyridin-2-yloxy)pyrrolidin-1-yl)-5-(pyridin-2-yl)phenyl)methanol] | > 1000 | > 3200 | no fit (5 min) no fit (30 min) |  |  | no fit (5 min) no fit (30 min) | 
17 | OCc1ccc(Oc2ccccc2Cl)cc1N1CC[C@H](Oc2ccc(C(F)(F)F)cn2)C1 [Compound 1-224, (S)-(4-(2-chlorophenoxy)-2-(3-(5-(trifluoromethyl)pyridin-2-yloxy)pyrrolidin-1-yl)phenyl)methanol] | 100 to 1000 | 161 | no fit (5 min) no fit (30 min) |  |  | no fit (5 min) no fit (30 min) | 
18 | OCc1ccc(-c2ccccc2Cl)cc1N1CC[C@H](Oc2ccc(C(F)(F)F)cn2)C1 [Compound 1-225, (S)-(2′-chloro-3-(3-(5-(trifluoromethyl)pyridin-2-yloxy)pyrrolidin-1-yl)biphenyl-4-yl)methanol] | 100 to 1000 | 215 | no fit (5 min) no fit (30 min) |  |  | no fit (5 min) no fit (30 min) | 
19 | CC(C)c1ccccc1-c1ccc([C@@H]2CCN(C(=O)c3ccc(F)cn3)C2)c(CO)c1 [Compound 2-77] | < 10 |  |  |  |  |  | solubility at 40 min [3]: > 15.5 µM; IC50 (hTRPV3 [1]; [9]): 2.27 nM; half-life at 1 μM [4]: 9.14 min
20 | CC(C)c1ccccc1-c1ccc([C@H]2CCN(C(=O)c3ccc(F)cn3)C2)c(CO)c1 [Compound 2-78] | 100 to 1000 |  |  |  |  |  | solubility at 40 min [3]: > 15.4 µM; IC50 (hTRPV3 [1]; [9]): 234 nM; half-life at 1 μM [4]: 12.1 min
21 | COc1cnc(C(=O)N2CCC(c3ccc(-c4ccccc4C4CC4)cc3CO)C2)cn1 (stereo not drawn) [Compound 2-107] | 10 to 100 |  |  |  |  |  | solubility at 40 min [3]: 9.25 µM (≈ 3.97 µg/mL); IC50 (hTRPV3 [1]; [9]): 31.5 nM; half-life at 1 μM [4]: 25.7 min
